Experimental data from ChEMBL document CHEMBL1201862, “PubChem BioAssay data set” (2004).
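Following 48 hours of exposure in 96-well plates, responses at five concentrations were used to interpolate endpoints linearly. The concentration for 50% growth inhibition is given as GI50.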 Active and inactive are the calls of the source. Cut-off read from the data, not from the text of the source: active = GI50 up to about 1.1 µM and inactive = higher.

Tests used:
Assay in all cases: NCI anticancer screen, dose series, 48 h
SK-OV-3 = tested on: SK-OV-3
IGROV-1 = tested on: IGROV-1
SF-268 = tested on: SF-268
SK-MEL-5 = tested on: SK-MEL-5
NCI-H23 = tested on: NCI-H23
EKVX = tested on: EKVX
K562 = tested on: K562
OVCAR-3 = tested on: OVCAR-3
NCI-H226 = tested on: NCI-H226
SN12C = tested on: SN12C
LXFL 529 = tested on: LXFL 529
KM12 = tested on: KM12
OVCAR-5 = tested on: OVCAR-5
SNB-78 = tested on: SNB-78
Malme-3M = tested on: Malme-3M
U-251 = tested on: U-251
SF-539 = tested on: SF-539
HCT-116 = tested on: HCT-116
SR = tested on: SR
NCI-H522 = tested on: NCI-H522
TK-10 = tested on: TK-10
OVCAR-4 = tested on: OVCAR-4
UO-31 = tested on: UO-31
M19-MEL = tested on: M19-MEL
786-0 = tested on: 786-0
XF498 = tested on: XF498
M14 = tested on: M14
RPMI-8226 = tested on: RPMI-8226
CCRF-CEM = tested on: CCRF-CEM
MOLT-4 = tested on: MOLT-4
NCI-H460 = tested on: NCI-H460
SF-295 = tested on: SF-295
HCC 2998 = tested on: HCC 2998
HL-60 = tested on: HL-60
HT-29 = tested on: HT-29
RXF 393 = tested on: RXF 393
DMS-273 = tested on: DMS-273
CAKI-1 = tested on: CAKI-1
UACC-62 = tested on: UACC-62
COLO 205 = tested on: COLO 205
DLD-1 = tested on: DLD-1
DMS-114 = tested on: DMS-114
A549 = tested on: A549
SNB-75 = tested on: SNB-75
HOP-92 = tested on: HOP-92
HOP-62 = tested on: HOP-62
KM-20L2 = tested on: KM-20L2
LOX IMVI = tested on: LOX IMVI
OVCAR-8 = tested on: OVCAR-8
A498 = tested on: A498
SNB-19 = tested on: SNB-19
SW-620 = tested on: SW-620
HCT-15 = tested on: HCT-15
UACC-257 = tested on: UACC-257
SK-MEL-2 = tested on: SK-MEL-2
SK-MEL-28 = tested on: SK-MEL-28
ACHN = tested on: ACHN

Measured: GI50

CC1=C(C#N)C(N)=C2C(C)=C(C#N)C(N)=C12
> 100 µM: HCT-15
inactive: SK-OV-3 > 100 µM | IGROV-1 > 100 µM | SF-268 > 100 µM | SK-MEL-5 > 100 µM | NCI-H23 > 100 µM | EKVX > 100 µM | K562 > 100 µM | OVCAR-3 > 100 µM | NCI-H226 > 100 µM | SN12C > 100 µM | LXFL 529 > 100 µM | KM12 > 100 µM | OVCAR-5 > 100 µM | SNB-78 > 100 µM | Malme-3M > 100 µM | U-251 > 100 µM | SF-539 > 100 µM | HCT-116 > 100 µM | SR > 100 µM | NCI-H522 > 100 µM | TK-10 > 100 µM | OVCAR-4 > 100 µM | UO-31 > 100 µM | M19-MEL > 100 µM | 786-0 > 100 µM | XF498 > 100 µM | M14 > 100 µM | RPMI-8226 > 100 µM | CCRF-CEM > 100 µM | MOLT-4 > 100 µM | NCI-H460 > 100 µM | SF-295 > 100 µM | HCC 2998 > 100 µM | HL-60 > 100 µM | HT-29 > 100 µM | RXF 393 > 100 µM | DMS-273 > 100 µM | CAKI-1 > 100 µM | UACC-62 > 100 µM | COLO 205 > 100 µM | DLD-1 > 100 µM | DMS-114 > 100 µM | A549 > 100 µM | SNB-75 > 100 µM | HOP-92 > 100 µM | HOP-62 > 100 µM | KM-20L2 > 100 µM | LOX IMVI > 100 µM | OVCAR-8 > 100 µM | A498 > 100 µM | SNB-19 > 100 µM | SW-620 > 100 µM | UACC-257 > 100 µM

N#Cc1cn(-c2c3ccccc3nc3ccccc23)c(=O)[nH]c1=O
5.96 µM: HCT-15
inactive: SK-OV-3 3.6 µM | IGROV-1 23.3 µM | SF-268 4.74 µM | NCI-H23 > 10 µM | EKVX 18.2 µM | K562 3.67 µM | OVCAR-3 8.02 µM | LXFL 529 9.04 µM | KM12 7.16 µM | OVCAR-5 13.8 µM | SNB-78 13.5 µM | Malme-3M 10.7 µM | U-251 18 µM | SF-539 2.51 µM | HCT-116 3.95 µM | SR 3.31 µM | NCI-H522 4.03 µM | SK-MEL-2 10.8 µM | TK-10 21.5 µM | OVCAR-4 5.14 µM | UO-31 3.8 µM | M19-MEL 6.46 µM | 786-0 3.29 µM | XF498 11.6 µM | M14 11.6 µM | RPMI-8226 14 µM | CCRF-CEM 7.29 µM | MOLT-4 4.15 µM | SK-MEL-28 16.8 µM | NCI-H460 3.55 µM | SF-295 5.83 µM | HL-60 10.6 µM | HT-29 4.27 µM | CAKI-1 5.75 µM | UACC-62 15.8 µM | COLO 205 5.43 µM | DLD-1 15.5 µM | DMS-114 8 µM | A549 4.56 µM | SNB-75 16.7 µM | HOP-92 7.73 µM | KM-20L2 7.38 µM | LOX IMVI 5.12 µM | ACHN 4.19 µM | OVCAR-8 4.85 µM | SNB-19 22.2 µM | SW-620 5.01 µM | UACC-257 4.86 µM
